Results on one compound are retold here after patent US8987285B2, “Pharmaceutical compositions, dosage forms and new forms of the compound of formula (I), and methods of use thereof” (Portola Pharmaceuticals, Inc., priority 2010, dated 2015).

Format in all cases: physicochemical
Series [1] is described as follows: Super-saturation measurement (CheqSol): intrinsic and kinetic solubility. The settings on record: for ratio super saturation: kinetic solubility divided by intrinsic solubility. The text has this: Anal. Chem. 2005, 77(4), 983-990; 2—Box, K J. Völgyi, G. Baka, E. Stuart, M. Takács-Novák, K. Corner, J E A. Equilibrium vs. kinetic measurements of aqueous solubility, and the ability of compounds to supersaturate in solution—a validation study. J. Pharm. Sci. 2006, 95, 1298-1307; 3—Sköld, C. Winiwarter, S. Johan Wernevik, J. Bergström, F. Engström, L. Allen, R. Box, K. Corner, J. Mole, J. Hallberg, A. Lennernäs, H. Lundstedt, T. Ungell, A-L. Karlén, A. Presentation of a Structurally Diverse and Commercially Available Drug Data Set for Correlation and Benchmarking Studies. J. Med. Chem. 2006, 49(23), 6660-6671;
. Med. Chem.; 2007, 50 (5), 979-983; 5—Llinás, A. Box, K J. Burley, J C. Glen, R C. Goodman, J M. J. A new method for the reproducible generation of polymorphs: two forms of Sulindac with very different solubilities. […] 6—Box K et al, Using Measured pKa, Log P and Solubility to Investigate Supersaturation and Predict BCS Class, Current Drug Metabolism, 2008, 9, 869-878]
1—kinetic solubility is the concentration of a compound in solution at the time when an induced precipitate first appears
2—equilibrium solubility (also called thermodynamic solubility) is the concentration of compound in a saturated solution when excess solid is present, and solution and solid are at equilibrium
3—intrinsic solubility [Hörter, D.; Dressman, J. B. Adv. Drug Deliv. Rev., 1997, 25, 3-14] is the equilibrium solubility of the free acid or base form of an ionisable compound at a pH where it is fully un-ionized
The super-saturation ratio is calculated as the ratio of kinetic solubility divided by the Intrinsic Solubility.

Series [2] in a line: pKa, log P and log D of the compound of formula (II). The text has this:
The pKa of the compound of formula (II) is about 3.3, with a log P of about 2.5 and log D (pH7.4) of about −1.6.

The nature of series [3]: Supersaturation stabilization experiment with PVP K90 (CheqSol). The text has this:
Typically the higher the super saturation, the faster and the more extensive is the precipitation which occurs. On the other hand, higher bioavailability may be achieved by using excipients which interact with the drug in the super-saturated state. In this super-saturated state, precipitation is inhibited and/or delayed, thus leading to higher luminal drug concentrations in vivo of the dissolved drug. […] The present invention thus provides a pharmaceutical composition which achieves higher bioavailability of the drug substance.

Read-outs that look alike come from different tables or passages of the source.

Broadly, the kinetic solubility is the concentration staying in solution when a stock, usually in DMSO, is diluted into the medium. For orientation: solubility means the dissolved amount per volume that the medium holds. Usually LogP stands for the decadic logarithm of the partition coefficient of the neutral form, usually between octanol and water. A lower LogP goes with lower lipophilicity. As a reminder, the pKa is the pH at which an ionisable group is half protonated. A word on the logD: it is the decadic logarithm of the distribution of all forms, ionised or not, between an organic phase and buffer at a given pH. A low value points to a more hydrophilic compound. With `CNc1cc2[nH]c(=O)n(-c3ccc(NC(=O)NS(=O)(=O)c4ccc(Cl)s4)cc3)c(=O)c2cc1F` [compound of formula (II), elinogrel], the kinetic solubility in series [1] (kinetic from dmso stock, CheqSol) is 4.17 µg/mL. Further, the ratio super saturation in series [1] (listed as Free acid) is given as 179; in series [1] (listed as free acid of formula (II)), 178. Also, the solubility in series [1] (thermodynamic from solid, CheqSol) was 0.0234 µg/mL; in series [3] (aqueous buffer, pH 6.0, read-out: solubility measured by Sirius CheqSol), 9.9 µg/mL. For the same compound, the LogP in series [2] is about 2.5. For the same compound, the pKa result is “about 3.3” in series [2] (first pKa) and 10.3 in series [2] (read-out: second pKa). Besides, in series [2] (pH 7.4, pH7.4), the logD was about -1.6. Also, the stable super-saturation in series [3] (PVP K90 to drug 1:1 by weight, pH>6.0, for 66 hours) is 17-86 fold. In series [3] (after 67 h with PVP, pH 7.2), the “concentration in solution with PVP” value is 860 µg/mL. This compound yielded a solubility at 66 h in series [3] (pH 7.2, aqueous buffer) of about 170 µg/mL.
